The assay addresses human LTA4 hydrolase (Homo sapiens (Human), UniProt P09960). The experiment in a line: LTA4H Enzyme assay (cleavage of Arg-AMC, fluorescence). Type of assay: biochemical. The settings on record: LTA4H Enzyme 1 nM, Arg-AMC substrate 50 μM, room temperature 1 h. As for the experimental part: The compounds of the invention are assessed for the ability to interact with human LTA4 hydrolase in an enzymatic assay that measures the ability of the enzyme to cleave the peptide bond of arginyl-aminomethylcoumarin (Arg-AMC). LTA4H Enzyme (1 nM final), Arg-AMC substrate (50 μM final), and compound are combined in a reaction buffer (50 mM Tris-HCl (pH 7.5), 100 mM KCl, 0.5% bovine serum albumin) at room temperature for 1 h. The formation of product is assessed by measuring the fluorescence of aminomethylcoumarin product (excitation wavelength 380 nm/emission wavelength 460 nm).

The record followed here is US9662339B2, “Benzodioxane inhibitors of leukotriene production for combination therapy” (Boehringer Ingelheim International GmbH, priority 2012, dated 2017).

Molecules are shown by their SMILES.

Sequence of human LTA4 hydrolase (P09960 whole entry): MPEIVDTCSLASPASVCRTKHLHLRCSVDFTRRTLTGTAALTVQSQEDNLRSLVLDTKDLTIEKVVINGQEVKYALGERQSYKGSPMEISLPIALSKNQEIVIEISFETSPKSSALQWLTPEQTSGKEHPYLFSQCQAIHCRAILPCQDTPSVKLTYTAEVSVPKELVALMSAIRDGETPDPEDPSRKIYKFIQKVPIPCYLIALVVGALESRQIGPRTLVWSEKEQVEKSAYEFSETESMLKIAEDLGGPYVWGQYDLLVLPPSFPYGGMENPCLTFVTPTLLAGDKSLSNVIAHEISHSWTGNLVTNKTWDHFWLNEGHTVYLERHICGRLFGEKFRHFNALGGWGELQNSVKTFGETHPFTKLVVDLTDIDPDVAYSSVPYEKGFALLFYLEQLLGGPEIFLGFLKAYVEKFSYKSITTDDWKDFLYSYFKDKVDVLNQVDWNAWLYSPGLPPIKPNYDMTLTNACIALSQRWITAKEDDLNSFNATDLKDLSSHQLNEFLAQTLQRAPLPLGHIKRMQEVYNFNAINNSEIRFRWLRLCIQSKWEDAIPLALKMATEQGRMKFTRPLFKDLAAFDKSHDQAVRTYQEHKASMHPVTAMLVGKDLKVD

One may read the IC50 as the concentration that inhibits the measured activity by half. Lower therefore signals inhibition by little substance. `c1cncc(CNCc2ccc(C3COc4ccccc4O3)cc2)c1` (centres unmarked) [Example 54, 1-[4-(2,3-dihydro-1,4-benzodioxin-2-yl)phenyl]-N-(pyridin-3-ylmethyl)methanamine]: the 50% inhibitory concentration (IC50) worked out at 5.93 nM. For `N#CC1CN(Cc2ccc(C3COc4ccccc4O3)cc2)C1` (centres unmarked) [Example 46, 1-[4-(2,3-dihydro-1,4-benzodioxin-2-yl)benzyl]azetidine-3-carbonitrile] the value was 24.8 nM. For `O=C1NC(=O)C2(CCN(Cc3ccc(C4COc5ccccc5O4)cc3)CC2)N1` (centres unmarked) [Example 35, 8-[4-(2,3-dihydro-1,4-benzodioxin-2-yl)benzyl]-1,3,8-triazaspiro[4.5]decane-2,4-dione] the value was 0.26 nM; for `c1ccc2c(c1)OC[C@@H](c1ccc(CN3CCCC3)cc1)O2` [Example 197, 1-[(R)-4-(2,3-dihydro-benzo[1,4]dioxin-2-yl)-benzyl]-pyrrolidine], 2.69 nM; for `CCN(CC)Cc1ccc(C2COc3ccccc3O2)cc1` (centres unmarked) [Example 45, N-[4-(2,3-dihydro-1,4-benzodioxin-2-yl)benzyl]-N-ethylethanamine], 0.9 nM. For `O=C(NCCO)C1CCN(Cc2ccc(C3COc4ccccc4O3)cc2)CC1` (racemic) [Example 52, 1-[4-(2,3-dihydro-1,4-benzodioxin-2-yl)benzyl]-N-(2-hydroxyethyl)piperidine-4-carboxamide] the value was 0.75 nM; for `c1ccc2c(c1)OCC(c1ccc(CNCC3CC3)cc1)O2` (centres unmarked) [Example 43, 1-cyclopropyl-N-[4-(2,3-dihydro-1,4-benzodioxin-2-yl)benzyl]methanamine], 4.42 nM. Regarding `O=S1(=O)CCN(Cc2ccc(C3COc4cccnc4O3)cc2)CC1` (racemic) [Example 17, 3-{4-[(1,1-dioxidothiomorpholin-4-yl)methyl]phenyl}-2,3-dihydro[1,4]dioxino[2,3-b]pyridine], the IC50 stood at 0.77 nM.

For `Cn1cnc(CNCc2ccc(C3COc4ccccc4O3)cc2)c1` (racemic) [Example 55, 1-[4-(2,3-dihydro-1,4-benzodioxin-2-yl)phenyl]-N-[(1-methyl-1H-imidazol-4-yl)methyl]methanamine], the concentration for half-maximal inhibition (IC50) came to 3.63 nM. The figure for `CC[C@@H](C)NCc1ccc(C2COc3ccccc3O2)cc1` (stereo partly drawn) [Example 24, (2R)-N-[4-(2,3-dihydro-1,4-benzodioxin-2-yl)benzyl]butan-2-amine] is 5.9 nM. For `c1ccc2c(c1)OC[C@@H](c1ccc(CN3CCOCC3)cc1)O2` [Example 199, 4-[(R)-4-(2,3-dihydro-benzo[1,4]dioxin-2-yl)-benzyl]-morpholine] the value was 40.1 nM; for `CNC(=O)C1CCN(Cc2ccc(C3COc4ccccc4O3)cc2)CC1` (racemic) [Example 25, 1-[4-(2,3-Dihydro-benzo[1,4]dioxin-2-yl)-benzyl]-piperidine-4-carboxylic acid methylamide], 0.76 nM. The figure for `CC(=O)N1CCCN(Cc2ccc(C3COc4ccccc4O3)cc2)CC1` (centres unmarked) [Example 31, 1-{4-[4-(2,3-dihydro-1,4-benzodioxin-2-yl)benzyl]-1,4-diazepan-1-yl}ethanone] is 1.54 nM; for `O=C(C1CCN(Cc2ccc(C3COc4ccccc4O3)cc2)CC1)N1CCOCC1` (racemic) [Example 37, {1-[4-(2,3-dihydro-1,4-benzodioxin-2-yl)benzyl]piperidin-4-yl}(morpholin-4-yl)methanone] it is 1.05 nM; for `CN1CCCN(Cc2ccc(C3COc4ccccc4O3)cc2)CC1` (centres unmarked) [Example 30, 1-[4-(2,3-dihydro-1,4-benzodioxin-2-yl)benzyl]-4-methyl-1,4-diazepane] it is 1.77 nM. Molecule `CS(=O)(=O)C1CCN(Cc2ccc(C3COc4ccccc4O3)cc2)CC1` (centres unmarked) [Example 39, 1-[4-(2,3-dihydro-1,4-benzodioxin-2-yl)benzyl]-4-(methylsulfonyl)piperidine] registered an IC50 of 2.14 nM. The figure for `O=C(O)C1CCCN(Cc2ccc(C3COc4ccccc4O3)cc2)C1` (centres unmarked) [Example 113, 1-[4-(2,3-dihydro-1,4-benzodioxin-2-yl)benzyl]piperidine-3-carboxylic acid] is 2.49 nM. As to `O=C1CCCN1CC1CCCN(Cc2ccc(C3COc4ccccc4O3)cc2)C1` (racemic) [Example 10, 1-({1-[4-(2,3-dihydro-1,4-benzodioxin-2-yl)benzyl]piperidin-3-yl}methyl)pyrrolidin-2-one], half-maximal inhibition (IC50) was put at 0.75 nM. Consider `CC(C)(O)C1CCN(Cc2ccc(C3COc4ccccc4O3)cc2)CC1` (centres unmarked) [Example 28, 2-{1-[4-(2,3-dihydro-1,4-benzodioxin-2-yl)benzyl]piperidin-4-yl}propan-2-ol], for which the IC50 was 3.4 nM. For the molecule `O[C@H]1CCN(Cc2ccc(C3COc4ccccc4O3)cc2)C1` (mixture of isomers) [Example 9, (3S)-1-[4-(2,3-dihydro-1,4-benzodioxin-2-yl)benzyl]pyrrolidin-3-ol], the IC50 is 1.49 nM.

For the molecule `O=C1NCCC12CCN(Cc1ccc([C@@H]3COc4ccccc4O3)cc1)CC2` [Example 195, 8-[(R)-4-(2,3-Dihydro-benzo[1,4]dioxin-2-yl)-benzyl]-2,8-diaza-spiro[4.5]decan-1-one], the IC50 was 1.59 nM. `c1ccc2c(c1)OCC(c1ccc(CN3CCCC3)cc1)O2` (racemic) [Example 1, 1-[4-(2,3-dihydro-1,4-benzodioxin-2-yl)benzyl]pyrrolidine]: the IC50 came out at 0.38 nM. The figure for `c1cnc2c(c1)OCC(c1ccc(CN3CCCC3)cc1)O2` (racemic) [Example 15, 3-[4-(pyrrolidin-1-ylmethyl)phenyl]-2,3-dihydro[1,4]dioxino[2,3-b]pyridine] is 0.36 nM; for `CC1(C)CCN(Cc2ccc(C3COc4ccccc4O3)cc2)CC1` (centres unmarked) [Example 3, 1-[4-(2,3-dihydro-1,4-benzodioxin-2-yl)benzyl]-4,4-dimethylpiperidine] it is 2.57 nM; for `O=C1CCCN1CC1CCN(Cc2ccc(C3COc4ccccc4O3)cc2)CC1` (centres unmarked) [Example 50, 1-({1-[4-(2,3-dihydro-1,4-benzodioxin-2-yl)benzyl]piperidin-4-yl}methyl)pyrrolidin-2-one] it is 0.6 nM. For `CN(CCc1ccccn1)Cc1ccc(C2COc3ccccc3O2)cc1` (centres unmarked) [Example 42, N-[4-(2,3-dihydro-1,4-benzodioxin-2-yl)benzyl]-N-methyl-2-(pyridin-2-yl)ethanamine] the value was 0.69 nM. The figure for `c1ccc2c(c1)OC[C@H](c1ccc(CN3CCCC3)cc1)O2` [Example 196, 1-[(S)-4-(2,3-dihydro-benzo[1,4]dioxin-2-yl)-benzyl]-pyrrolidine] is 0.39 nM; for `COC1CN(Cc2ccc(C3COc4ccccc4O3)cc2)C1` (centres unmarked) [Example 36, 1-[4-(2,3-dihydro-1,4-benzodioxin-2-yl)benzyl]-3-methoxyazetidine] it is 4.45 nM. For `c1ccc2c(c1)OCC(c1ccc(CN3CCOCC3)cc1)O2` (centres unmarked) [Example 2, 4-[4-(2,3-dihydro-1,4-benzodioxin-2-yl)benzyl]morpholine], the midpoint of inhibition, the IC50, lay at 2.45 nM.

On to `OC1CCN(Cc2ccc([C@H]3COc4ccccc4O3)cc2)CC1` [Example 192, (S)-1-[4-(2,3-Dihydro-benzo[1,4]dioxin-2-yl)-benzyl]-piperidin-4-ol], for which the IC50 was 0.43 nM. The figure for `c1cnc2c(c1)OCC(c1ccc(CN3CCOCC3)cc1)O2` (racemic) [Example 18, 3-[4-(morpholin-4-ylmethyl)phenyl]-2,3-dihydro[1,4]dioxino[2,3-b]pyridine] is 1.14 nM.

Regarding `CC(=O)N1CCN(Cc2ccc(C3COc4ccccc4O3)cc2)CC1` (centres unmarked) [Example 11, 1-{4-[4-(2,3-dihydro-1,4-benzodioxin-2-yl)benzyl]piperazin-1-yl}ethanone], half-maximal inhibition (IC50) was put at 2.95 nM. The figure for `OCC1CCN(Cc2ccc(C3COc4ccccc4O3)cc2)CC1` (centres unmarked) [Example 27, {1-[4-(2,3-dihydro-1,4-benzodioxin-2-yl)benzyl]piperidin-4-yl}methanol] is 1.2 nM; for `CN(C)C(=O)CC1CCN(Cc2ccc(C3COc4ccccc4O3)cc2)CC1` (centres unmarked) [Example 38, 2-{1-[4-(2,3-dihydro-1,4-benzodioxin-2-yl)benzyl]piperidin-4-yl}-N,N-dimethylacetamide] it is 1.14 nM; for `O=C(O)CCCC1CCN(Cc2ccc(C3COc4ccccc4O3)cc2)CC1` (racemic) [Example 26, 4-{1-[4-(2,3-dihydro-1,4-benzodioxin-2-yl)benzyl]piperidin-4-yl}butanoic acid] it is 0.43 nM. The molecule `c1ccc2c(c1)OC[C@H](c1ccc(CN3CCOCC3)cc1)O2` [Example 198, 4-[(S)-4-(2,3-dihydro-benzo[1,4]dioxin-2-yl)-benzyl]-morpholine] displayed an IC50 of 2.28 nM. Molecule `c1ccc2c(c1)OCC(c1ccc(CN3CCn4cnnc4C3)cc1)O2` (racemic) [Example 16, 7-[4-(2,3-dihydro-1,4-benzodioxin-2-yl)benzyl]-5,6,7,8-tetrahydro[1,2,4]triazolo[4,3-a]pyrazine] returned an IC50 of 2.32 nM. The figure for `NC(=O)NC1CCN(Cc2ccc(C3COc4ccccc4O3)cc2)CC1` (racemic) [Example 53, 1-{1-[4-(2,3-dihydro-1,4-benzodioxin-2-yl)benzyl]piperidin-4-yl}urea] is 0.42 nM; for `CN(C)C(=O)C1CCN(Cc2ccc(C3COc4ccccc4O3)cc2)CC1` (centres unmarked) [Example 51, 1-[4-(2,3-dihydro-1,4-benzodioxin-2-yl)benzyl]-N,N-dimethylpiperidine-4-carboxamide] it is 0.82 nM. As for `OCCCC1CCN(Cc2ccc(C3COc4ccccc4O3)cc2)CC1` (centres unmarked) [Example 29, 3-{1-[4-(2,3-dihydro-1,4-benzodioxin-2-yl)benzyl]piperidin-4-yl}propan-1-ol], the midpoint of inhibition, the IC50, lay at 2.04 nM.

Take `c1ccc2c(c1)OCC(c1ccc(CN3CCCCCC3)cc1)O2` (centres unmarked) [Example 40, 1-[4-(2,3-dihydro-1,4-benzodioxin-2-yl)benzyl]azepane]: it took 0.82 nM to reach half-maximal inhibition (IC50).
